Reference: ChEMBL document CHEMBL1135188, “Synthesis and anti-tumor activity of novel combretastatins: combretocyclopentenones and related analogues” (Bioorg Med Chem Lett, 2002)
In brackets after ≈: the same amount, converted by molar mass.

Key:
[1] = tested on: B16; test: Cytotoxicity expressed as inhibitory concentration required to reduce the cell growth of B16 murine melanoma cell line; type: functional, cell-based; conditions: Mus musculus
[2] = tested on: HCT-116; test: Cytotoxicity expressed as inhibitory concentration required to reduce the cell growth of HCT116 human colon carcinoma cell line; type: functional, cell-based
[3] = tested on: A-431; test: Cytotoxicity expressed as inhibitory concentration required to reduce the cell growth of A431 human epidermal carcinoma cell line; type: functional, cell-based
[4] = Inhibition ratio expressed as percentage showing significant anti-tumor activity in BDF1 mice bearing Lewis lung carcinoma cells was determined; type: functional

Compound	IC50 [1] [µg/mL]	IC50 [2] [µg/mL]	IC50 [3] [µg/mL]	Ratio [4]
COc1ccc(C2=C(c3cc(OC)c(OC)c(OC)c3)CCC2)cc1	> 1	> 1	–	–
COc1ccc(C2=C(c3cc(OC)c(OC)c(OC)c3)C(=O)CC2)cc1	0.015 (≈ 0.0423 µM)	0.021 (≈ 0.0593 µM)	0.021 (≈ 0.0593 µM)	–
COc1ccc(C2=C(c3cc(OC)c(OC)c(OC)c3)C(=O)C=C2)cc1	0.011 (≈ 0.0312 µM)	0.013 (≈ 0.0369 µM)	–	–
COc1ccc(C2=C(c3cc(OC)c(OC)c(OC)c3)C(=O)CC2)cc1O	0.013 (≈ 0.0351 µM)	0.012 (≈ 0.0324 µM)	0.009 (≈ 0.0243 µM)	–
COc1ccc(C2=C(c3cc(OC)c(OC)c(OC)c3)C(O)CC2)cc1 (configuration not stated)	0.039 (≈ 0.109 µM)	0.045 (≈ 0.126 µM)	–	–
COc1cc(C2=C(c3ccc4ccccc4c3)CCC2=O)cc(OC)c1OC	0.029 (≈ 0.0774 µM)	0.031 (≈ 0.0828 µM)	0.034 (≈ 0.0908 µM)	–
COc1ccc(C2=C(c3cc(OC)c(OC)c(OC)c3)C(=O)CC2)cc1N	0.008 (≈ 0.0217 µM)	0.008 (≈ 0.0217 µM)	0.009 (≈ 0.0244 µM)	59
COc1ccc(C2=C(c3cc(OC)c(OC)c(OC)c3)COC2)cc1	> 1	> 1	–	–
COc1cccc2c1C(=O)c1c(O)c3c(c(O)c1C2=O)C[C@@](O)(C(=O)CO)C[C@@H]3O[C@H]1C[C@H](N)[C@H](O)[C@H](C)O1 [DOXORUBICIN]	–	–	0.117 (≈ 0.215 µM)	–
